ChEMBL document CHEMBL1201862, “PubChem BioAssay data set” (2004)
Active and inactive are the calls of the source.

Assays:
[1] = molecular target: T1, DNA repair and recombination protein RAD54-like (Homo sapiens, UniProt Q92698); test: inhibitors of human RAD54 branch migration, confirmation, biochemical, fluorescence, cherry-picked samples, dose series (AID 651657); type: functional
T1 sequence (Q92698 whole entry): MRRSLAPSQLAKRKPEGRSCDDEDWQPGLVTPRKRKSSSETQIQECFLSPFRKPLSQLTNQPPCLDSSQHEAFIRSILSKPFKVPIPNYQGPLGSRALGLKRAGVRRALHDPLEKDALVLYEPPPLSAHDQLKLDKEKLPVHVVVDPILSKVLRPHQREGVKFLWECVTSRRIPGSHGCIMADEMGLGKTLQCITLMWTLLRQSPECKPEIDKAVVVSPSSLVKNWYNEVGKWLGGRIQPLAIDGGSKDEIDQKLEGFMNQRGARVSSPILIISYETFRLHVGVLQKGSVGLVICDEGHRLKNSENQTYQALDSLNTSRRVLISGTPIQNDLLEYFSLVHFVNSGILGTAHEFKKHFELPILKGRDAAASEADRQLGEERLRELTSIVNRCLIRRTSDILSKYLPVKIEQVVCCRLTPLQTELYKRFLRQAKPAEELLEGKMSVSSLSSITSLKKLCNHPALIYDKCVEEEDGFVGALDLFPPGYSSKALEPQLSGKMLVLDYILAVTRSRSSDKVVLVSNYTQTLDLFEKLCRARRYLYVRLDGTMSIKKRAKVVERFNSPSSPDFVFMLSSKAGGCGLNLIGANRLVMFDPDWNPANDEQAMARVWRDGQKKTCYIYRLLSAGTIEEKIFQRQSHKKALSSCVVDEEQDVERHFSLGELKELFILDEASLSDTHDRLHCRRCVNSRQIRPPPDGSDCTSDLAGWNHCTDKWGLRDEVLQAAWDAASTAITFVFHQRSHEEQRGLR

[2] = molecular target: T2, Endoribonuclease toxin MazF (Escherichia coli K-12, UniProt P0AE70); test: MazF toxin RNase activators, dose response, biochemical, fluorescence, single-stranded RNA substrate, uHTS hits (AID 588481); type: functional
T2 sequence (P0AE70 whole entry): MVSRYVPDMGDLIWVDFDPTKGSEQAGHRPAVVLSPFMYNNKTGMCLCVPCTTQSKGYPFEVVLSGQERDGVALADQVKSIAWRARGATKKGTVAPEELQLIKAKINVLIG

[3] = molecular target: T2, Endoribonuclease toxin MazF; test: fluorescent RNA oligo signal without MazF, dose response, counter-screen for MazEF activator project, biochemical, fluorescence, single-stranded RNase substrate (AID 588502); type: functional
[4] = molecular target: T3, Zinc finger protein mex-5 (Caenorhabditis elegans, UniProt Q9XUB2); test: MEX-5/TCR-2 RNA interaction inhibitors, dose response, biochemical, C. elegans, fluorescence polarization (AID 1960)
T3 sequence (Q9XUB2 whole entry): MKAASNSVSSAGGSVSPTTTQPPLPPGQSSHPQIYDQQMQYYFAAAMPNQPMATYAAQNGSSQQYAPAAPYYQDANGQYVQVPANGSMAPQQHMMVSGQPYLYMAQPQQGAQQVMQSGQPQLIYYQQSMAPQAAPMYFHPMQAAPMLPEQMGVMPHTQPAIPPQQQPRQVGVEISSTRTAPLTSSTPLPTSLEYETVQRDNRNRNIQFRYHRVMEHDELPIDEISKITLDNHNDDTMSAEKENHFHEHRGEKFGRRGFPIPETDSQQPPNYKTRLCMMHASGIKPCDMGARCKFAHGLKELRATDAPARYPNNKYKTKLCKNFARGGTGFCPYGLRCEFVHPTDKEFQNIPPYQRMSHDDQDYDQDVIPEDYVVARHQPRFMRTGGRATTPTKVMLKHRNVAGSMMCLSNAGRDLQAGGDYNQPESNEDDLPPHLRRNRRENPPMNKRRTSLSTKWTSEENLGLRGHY

[5] = molecular target: T4, RNA-binding protein pos-1 (Caenorhabditis elegans, UniProt G5EF15); test: inhibitors of POS-1/mex-3 RNA binding, dose response, biochemical, fluorescence polarization (AID 1964);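 further: purified POS-1 fused to maltose binding protein made in E. coli; potency of compounds blocking POS-1 binding to fluorescent RNA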
T4 sequence (G5EF15 whole entry): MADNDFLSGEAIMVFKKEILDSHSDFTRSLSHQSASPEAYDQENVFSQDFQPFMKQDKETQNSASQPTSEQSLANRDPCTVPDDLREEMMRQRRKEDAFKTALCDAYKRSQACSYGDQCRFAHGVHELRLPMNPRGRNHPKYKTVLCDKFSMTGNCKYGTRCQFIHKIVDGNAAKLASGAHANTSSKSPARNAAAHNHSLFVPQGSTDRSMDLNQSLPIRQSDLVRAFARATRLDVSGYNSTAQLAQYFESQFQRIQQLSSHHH

Protein RecA = molecular target: T5, Protein RecA (Mycobacterium tuberculosis, UniProt P9WHJ3); test: Fluorescence Cell-Free Homogeneous Dose Retest to Identify Inhibitors of RecA-Intein Splicing Activity. [Related pubchem assays (depositor defined):AID2097, AID2223, AID489010, AID492950]; type: functional
T5 sequence (P9WHJ3 whole entry): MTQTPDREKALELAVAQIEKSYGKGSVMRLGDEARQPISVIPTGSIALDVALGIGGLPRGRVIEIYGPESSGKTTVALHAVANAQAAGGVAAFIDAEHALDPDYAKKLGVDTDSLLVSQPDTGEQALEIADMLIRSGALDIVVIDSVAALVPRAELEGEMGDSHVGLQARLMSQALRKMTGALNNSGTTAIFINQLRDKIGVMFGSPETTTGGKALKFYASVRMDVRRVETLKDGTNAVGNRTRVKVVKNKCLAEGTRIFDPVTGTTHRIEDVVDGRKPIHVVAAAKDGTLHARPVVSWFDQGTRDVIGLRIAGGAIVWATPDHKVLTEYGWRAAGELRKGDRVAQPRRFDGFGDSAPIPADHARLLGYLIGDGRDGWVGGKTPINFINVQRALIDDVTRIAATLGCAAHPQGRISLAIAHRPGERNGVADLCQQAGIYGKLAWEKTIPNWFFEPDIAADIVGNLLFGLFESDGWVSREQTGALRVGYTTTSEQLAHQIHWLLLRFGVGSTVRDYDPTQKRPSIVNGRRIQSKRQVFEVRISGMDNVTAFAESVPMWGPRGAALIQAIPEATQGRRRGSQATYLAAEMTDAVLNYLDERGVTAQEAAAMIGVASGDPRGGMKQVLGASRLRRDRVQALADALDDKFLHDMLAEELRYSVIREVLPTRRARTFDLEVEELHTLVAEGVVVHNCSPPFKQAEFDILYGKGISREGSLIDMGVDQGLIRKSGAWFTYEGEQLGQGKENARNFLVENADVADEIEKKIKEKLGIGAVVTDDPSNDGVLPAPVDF

[6] = inhibitors of intracellular T. cruzi replication, confirmation, NIH3T3 host cells, beta-gal luminescence (AID 2044); type: functional, cell-based;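 further: intracellular parasites grown in NIH/3T3 mouse fibroblasts as host cells; luminescent beta-galactosidase reporter signal from transgenic T. cruzi replicating inside host cells; inhibitors lower the luminescence signal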
[7] = microbe, parasite or virus in culture; type: functional; conditions: Mycobacterium tuberculosis
[8] = cytotoxicity toward NIH3T3 fibroblasts, dose response, counter-screen, cell-based, ATP luminescence, mouse fibroblasts (AID 2010); type: functional;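 further: cells exposed to compound for about 90 hours before reading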
[9] = molecular target: T6, Replicative DNA helicase DnaB (Mycobacterium tuberculosis, UniProt P9WMR3); test: DnaB intein splicing inhibitors, dose response, biochemical, cell-free fluorescence (AID 449749); type: functional
T6 sequence (P9WMR3 whole entry): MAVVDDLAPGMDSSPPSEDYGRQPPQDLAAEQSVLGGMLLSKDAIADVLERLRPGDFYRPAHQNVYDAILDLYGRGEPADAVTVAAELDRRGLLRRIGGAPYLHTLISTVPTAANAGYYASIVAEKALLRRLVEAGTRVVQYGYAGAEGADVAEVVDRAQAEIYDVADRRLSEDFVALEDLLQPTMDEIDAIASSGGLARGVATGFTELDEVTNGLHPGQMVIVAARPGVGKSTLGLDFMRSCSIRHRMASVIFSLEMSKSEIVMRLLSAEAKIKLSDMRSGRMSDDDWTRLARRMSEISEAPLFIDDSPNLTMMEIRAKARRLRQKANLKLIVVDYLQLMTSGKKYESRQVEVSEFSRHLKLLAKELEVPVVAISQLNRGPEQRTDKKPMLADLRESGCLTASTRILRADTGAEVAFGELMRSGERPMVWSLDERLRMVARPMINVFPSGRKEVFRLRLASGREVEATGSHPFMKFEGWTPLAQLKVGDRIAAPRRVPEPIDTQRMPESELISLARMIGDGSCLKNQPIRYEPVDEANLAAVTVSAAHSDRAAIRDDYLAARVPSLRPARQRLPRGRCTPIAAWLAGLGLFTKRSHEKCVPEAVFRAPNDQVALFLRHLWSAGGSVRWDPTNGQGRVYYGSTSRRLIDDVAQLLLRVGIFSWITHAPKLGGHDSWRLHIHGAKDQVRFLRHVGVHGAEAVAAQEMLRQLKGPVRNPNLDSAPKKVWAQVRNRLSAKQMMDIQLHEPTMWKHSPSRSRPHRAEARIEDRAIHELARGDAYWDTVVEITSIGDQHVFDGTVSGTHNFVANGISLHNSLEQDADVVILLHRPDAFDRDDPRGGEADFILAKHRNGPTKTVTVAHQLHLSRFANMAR

[10] = molecular target: Peroxisome proliferator-activated receptor gamma/Nuclear receptor coactivator 1 (Homo sapiens, UniProt P37231); test: (§1) TR-FRET dose response biochemical High Throughput Screening assay for agonists of the steroid receptor coactivator 1 (SRC-1) recruitment by the peroxisome proliferator-activated receptor gamma (PPAR gamma): non-selective agonists. [Related pubchem assays (depositor defined):AID1300, AID1808, AID504735, AID631]; type: protein assay
[11] = molecular target: Peroxisome proliferator-activated receptor gamma/Nuclear receptor coactivator 3 (Homo sapiens, UniProt P37231); test: as §1, with “3 (SRC-3)” for “1 (SRC-1)”, “assays: 1301 (Confirmation screen.), 1048 (Primary screen.)]” for “assays (depositor defined):AID1300, AID1808, AID504735, AID631]”; type: functional
[12] = molecular target: Peroxisome proliferator-activated receptor gamma/Nuclear receptor coactivator 2 (Homo sapiens, UniProt P37231); test: TR-FRET dose response biochemical High Throughput Screening assay for agonists of the steroid receptor coactivator 2 (SRC-2) recruitment by the peroxisome proliferator-activated receptor gamma (PPAR gamma): non-selective agonists. [Related pubchem assays: 1297, 1032 ]; type: functional
Vero = test: cells; type: functional; conditions: Chlorocebus sabaeus
[13] = intracellular Trypanosoma cruzi inhibitors in host cells – cell-based, plate reader, cherry-pick samples, set 3, dose response (AID 651818); type: functional;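 further: compounds incubated with infected cells for about four days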
[14] = P. falciparum Dd2 growth inhibitors, dose response, SYBR Green, cherry-picked samples (AID 1159567); type: functional, cell-based

Sequence of Peroxisome proliferator-activated receptor gamma/Nuclear receptor coactivator 1 (P37231 whole entry): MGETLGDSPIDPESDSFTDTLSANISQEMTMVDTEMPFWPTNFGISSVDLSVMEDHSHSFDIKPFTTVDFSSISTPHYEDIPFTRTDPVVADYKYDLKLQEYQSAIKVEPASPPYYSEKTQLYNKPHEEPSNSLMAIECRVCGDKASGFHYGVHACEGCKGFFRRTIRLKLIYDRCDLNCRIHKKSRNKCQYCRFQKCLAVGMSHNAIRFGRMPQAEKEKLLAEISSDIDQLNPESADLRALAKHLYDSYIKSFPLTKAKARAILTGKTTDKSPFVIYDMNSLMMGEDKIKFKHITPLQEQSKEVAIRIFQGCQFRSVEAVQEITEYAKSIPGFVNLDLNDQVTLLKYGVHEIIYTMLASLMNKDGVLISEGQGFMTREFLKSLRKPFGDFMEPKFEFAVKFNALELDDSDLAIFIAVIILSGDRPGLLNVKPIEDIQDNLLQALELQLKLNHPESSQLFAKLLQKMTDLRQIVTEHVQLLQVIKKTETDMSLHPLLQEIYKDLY
Sequence of Peroxisome proliferator-activated receptor gamma/Nuclear receptor coactivator 1 (Q15788 whole entry, further chain): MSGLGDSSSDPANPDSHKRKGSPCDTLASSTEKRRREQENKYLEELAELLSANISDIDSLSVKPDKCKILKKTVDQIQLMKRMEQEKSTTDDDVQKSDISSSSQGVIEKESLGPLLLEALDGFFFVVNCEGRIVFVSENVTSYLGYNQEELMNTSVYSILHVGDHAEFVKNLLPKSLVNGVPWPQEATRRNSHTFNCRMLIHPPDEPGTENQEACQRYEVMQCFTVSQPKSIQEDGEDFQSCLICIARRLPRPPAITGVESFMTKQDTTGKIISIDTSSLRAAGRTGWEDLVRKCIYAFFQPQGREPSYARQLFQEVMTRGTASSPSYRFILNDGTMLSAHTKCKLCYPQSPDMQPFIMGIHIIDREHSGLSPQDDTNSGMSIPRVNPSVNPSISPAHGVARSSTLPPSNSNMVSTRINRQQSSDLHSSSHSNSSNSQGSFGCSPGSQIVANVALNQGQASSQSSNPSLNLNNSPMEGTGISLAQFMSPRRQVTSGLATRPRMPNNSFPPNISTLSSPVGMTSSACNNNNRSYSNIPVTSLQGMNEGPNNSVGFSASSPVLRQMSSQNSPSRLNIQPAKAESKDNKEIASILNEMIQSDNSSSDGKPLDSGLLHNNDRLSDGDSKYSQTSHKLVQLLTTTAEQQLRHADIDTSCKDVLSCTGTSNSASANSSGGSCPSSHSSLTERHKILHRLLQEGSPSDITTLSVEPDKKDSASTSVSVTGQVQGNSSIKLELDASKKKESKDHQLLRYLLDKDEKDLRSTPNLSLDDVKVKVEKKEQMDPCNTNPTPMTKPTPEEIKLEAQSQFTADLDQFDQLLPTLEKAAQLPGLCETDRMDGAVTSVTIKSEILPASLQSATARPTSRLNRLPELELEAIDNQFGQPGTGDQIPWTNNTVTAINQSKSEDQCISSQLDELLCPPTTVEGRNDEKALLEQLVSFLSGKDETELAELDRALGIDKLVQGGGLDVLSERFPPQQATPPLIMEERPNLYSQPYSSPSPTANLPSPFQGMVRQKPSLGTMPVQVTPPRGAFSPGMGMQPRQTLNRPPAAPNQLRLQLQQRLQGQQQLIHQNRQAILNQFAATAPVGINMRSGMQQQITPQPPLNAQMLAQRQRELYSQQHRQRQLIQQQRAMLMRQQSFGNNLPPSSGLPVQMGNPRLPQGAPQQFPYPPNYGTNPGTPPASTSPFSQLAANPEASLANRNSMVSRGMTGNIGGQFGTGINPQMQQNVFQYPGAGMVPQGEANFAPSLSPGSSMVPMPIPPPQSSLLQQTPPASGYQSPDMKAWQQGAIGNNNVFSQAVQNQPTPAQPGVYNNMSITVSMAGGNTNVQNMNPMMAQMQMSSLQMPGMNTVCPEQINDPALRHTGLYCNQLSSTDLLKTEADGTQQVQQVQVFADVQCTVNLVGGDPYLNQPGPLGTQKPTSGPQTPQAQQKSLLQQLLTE
Sequence of Peroxisome proliferator-activated receptor gamma/Nuclear receptor coactivator 3 (P37231 whole entry): as the sequence (P37231 whole entry) above
Sequence of Peroxisome proliferator-activated receptor gamma/Nuclear receptor coactivator 3 (Q9Y6Q9 whole entry, further chain): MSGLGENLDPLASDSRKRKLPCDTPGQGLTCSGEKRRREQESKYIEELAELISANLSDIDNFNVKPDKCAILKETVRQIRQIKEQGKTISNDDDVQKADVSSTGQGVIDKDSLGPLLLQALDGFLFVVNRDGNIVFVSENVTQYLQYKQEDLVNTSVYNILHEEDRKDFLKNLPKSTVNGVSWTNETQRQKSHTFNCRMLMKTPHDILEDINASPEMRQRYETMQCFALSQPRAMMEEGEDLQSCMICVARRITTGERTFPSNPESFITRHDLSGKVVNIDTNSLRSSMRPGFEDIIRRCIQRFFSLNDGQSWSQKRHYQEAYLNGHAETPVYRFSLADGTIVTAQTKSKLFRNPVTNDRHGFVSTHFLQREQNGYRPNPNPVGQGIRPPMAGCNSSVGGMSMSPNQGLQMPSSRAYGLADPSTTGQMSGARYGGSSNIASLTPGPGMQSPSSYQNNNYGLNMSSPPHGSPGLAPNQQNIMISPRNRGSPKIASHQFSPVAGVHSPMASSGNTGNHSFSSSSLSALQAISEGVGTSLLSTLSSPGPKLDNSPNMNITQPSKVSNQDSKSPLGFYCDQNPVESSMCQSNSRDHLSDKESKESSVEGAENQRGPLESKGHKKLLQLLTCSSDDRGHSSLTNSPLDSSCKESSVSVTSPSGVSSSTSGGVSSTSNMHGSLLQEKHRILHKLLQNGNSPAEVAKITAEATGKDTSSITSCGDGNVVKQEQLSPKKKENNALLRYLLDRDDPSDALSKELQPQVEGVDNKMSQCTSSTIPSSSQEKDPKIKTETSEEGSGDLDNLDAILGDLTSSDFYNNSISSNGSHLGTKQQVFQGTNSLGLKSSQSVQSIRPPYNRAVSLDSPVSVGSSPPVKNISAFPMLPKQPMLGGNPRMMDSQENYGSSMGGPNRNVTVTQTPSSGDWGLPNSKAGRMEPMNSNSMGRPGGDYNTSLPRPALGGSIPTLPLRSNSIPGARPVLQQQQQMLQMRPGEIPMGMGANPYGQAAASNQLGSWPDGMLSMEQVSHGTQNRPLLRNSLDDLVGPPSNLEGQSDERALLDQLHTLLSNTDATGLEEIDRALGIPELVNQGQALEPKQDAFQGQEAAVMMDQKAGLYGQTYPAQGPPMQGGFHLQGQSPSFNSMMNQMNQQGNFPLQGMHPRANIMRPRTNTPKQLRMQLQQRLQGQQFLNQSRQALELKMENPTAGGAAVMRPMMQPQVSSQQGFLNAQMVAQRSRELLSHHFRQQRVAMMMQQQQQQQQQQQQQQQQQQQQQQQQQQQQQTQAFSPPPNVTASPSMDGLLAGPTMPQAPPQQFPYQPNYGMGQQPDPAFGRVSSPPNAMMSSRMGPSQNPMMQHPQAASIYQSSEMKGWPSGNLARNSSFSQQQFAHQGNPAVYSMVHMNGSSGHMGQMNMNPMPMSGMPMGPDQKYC

## CN(C)CCCNc1nc(-c2ccccc2)nc2ccccc12
[1]
  AC50: 28.8 µM (active)

## Cc1cccc2cc3c(N)c(C(=O)N4CCc5ccccc54)sc3nc12
[2]
  EC50: > 99 µM (inactive)
[3]
  EC50: 43.4 µM (inactive)

## Cc1cccn2c(=O)c3cc(C#N)c(=O)n(CCCN4CCOCC4)c3nc12
[1]
  AC50: 48.9 µM (active)

## Cc1cc(/C=C2\C(=O)NC(=O)N(Cc3ccccc3)C2=O)c(C)n1C1CC1
[4]
  EC50: > 300 µM (not active)
[2]
  EC50: > 99 µM (inactive)
[5]
  EC50: > 300 µM (not active)
[3]
  EC50: 23.4 µM (inactive)

## COc1ccc(Nc2nc(N3CCCCC3)nc3ccccc23)c(OC)c1
Protein RecA
  EC50: 114 µM (active)
[1]
  AC50: 62.2 µM (active)
[6]
  EC50: 0.578 µM (active)
[7]
  CC50: > 40 µM (active)
[8]
  EC50: > 60 µM (inconclusive)
[9]
  AC50: 280 µM (active)

## COc1cccc(NC(=O)CSc2c3c(nc4ccccc24)CCCC3)c1
Protein RecA
  EC50: 3.36 µM (active)
[10]
  EC50: > 79.4 µM (inactive)
[11]
  EC50: > 79.4 µM (not active)
[12]
  EC50: 66.1 µM (not active)
[9]
  AC50: 35.9 µM (active)

## COc1ccc(CNC(=O)C(C#N)c2nc3ccccc3nc2N2CCCC2)cc1 (configuration not stated)
[2]
  EC50: 9.99 µM (active)
[3]
  EC50: 14.5 µM (active)

## COc1ccc(C(=O)CC(SCC(NC(C)=O)C(=O)O)c2ccc(Cl)cc2)cc1OC (configuration not stated)
Vero
  CC50: 22.4 µM (active)

## CCn1c(=O)cc(SCC(=O)Nc2ccc(OC)c(OC)c2)c2ccccc21
[10]
  EC50: > 79.4 µM (inactive)
[11]
  EC50: > 79.4 µM (not active)
[12]
  EC50: 53.8 µM (not active)

## CN1CCc2[nH]c3ccc(C(=O)NN)cc3c2C1
[1]
  AC50: 100 µM (inactive)

## CSC1=NP(=S)(SC)N(C)c2nc3n(c21)CCC3 (configuration not stated)
[10]
  EC50: > 79.4 µM (inactive)
[11]
  EC50: > 79.4 µM (not active)
[12]
  EC50: > 79.4 µM (not active)

## CN(C)c1ccc(C=C2C=Cc3ccccc32)cc1
[2]
  EC50: > 99 µM (inactive)
[3]
  EC50: 20.7 µM (inactive)

## COc1cc2cc(c1Cl)N(C)C(=O)CC(OC(=O)C(C)N(C)C(C)=O)C1(C)OC1C(C)C1CC(O)(NC(=O)O1)C(OC)C=CC=C(C)C2 (configuration not stated)
Vero
  CC50: < 0.05 µM (active)

## Cc1ccc(S(=O)(=O)Nc2ccc3c(c2)CC(=O)N([C@@H](C)CO)C[C@@H](C)[C@@H](CN(C)Cc2ccc(C(=O)Nc4ccccc4N)cc2)O3)cc1
[13]
  AC50: 2.94 µM (active)

## C[C@@H]1CN([C@H](C)CO)C(=O)c2cccc(NC(=O)Nc3cccc4ccccc34)c2O[C@@H]1CN(C)C(=O)Nc1ccc(F)cc1
[14]
  AC50: 3.76 µM (active)
[13]
  AC50: 3.81 µM (active)

## Cc1ccc(S(=O)(=O)Nc2cccc3c2O[C@@H](CN(C)Cc2ccc(C(=O)Nc4ccccc4N)cc2)[C@@H](C)CN([C@H](C)CO)C3=O)cc1
[13]
  AC50: 5.8 µM (active)

## COc1ccc(S(=O)(=O)Nc2ccc3c(c2)CC(=O)N([C@@H](C)CO)C[C@H](C)[C@H](CN(C)Cc2ccc(Cl)c(Cl)c2)O3)cc1
[13]
  AC50: 5.64 µM (active)
